Numbers after ± are expanded uncertainties.
How the values were obtained:
[1] = Liquid; for electrical conductivity: Alternating current cell with electrodes; for viscosity: Capillary tube (Ostwald / Ubbelohde) method; for mass density: Vibrating tube method; for speed of sound: Linear variable-path acoustic interferometer
[2] = refractive index (Na D-line) (dimensionless); conditions: 101.33 kPa, Liquid, Standard Abbe refractometry

Nc1[nH]cnc2ncnc1-2 [6-amino-1H-purine]
[1], 101 kPa
Conditions	electrical conductivity [S/m]	mass density [kg/m3]	viscosity [mPa·s]
298.15 K	0.296 ± 0.006	1097.6 ± 0.3	128.5 ± 5.5
303.15 K	0.382 ± 0.008	1094.5 ± 0.3	95.23 ± 4
308.15 K	0.48 ± 0.01	1091.4 ± 0.3	72.42 ± 2.9
313.15 K	0.594 ± 0.012	1088.4 ± 0.3	56.38 ± 2.3
318.15 K	0.827 ± 0.017	1085.3 ± 0.3	44.79 ± 1.8
323.15 K	0.986 ± 0.02	1082.3 ± 0.3	36.23 ± 1.5
328.15 K	–	1079.3 ± 0.3	29.78 ± 1.2
333.15 K	–	1076.2 ± 0.3	24.82 ± 1
338.15 K	–	1073.3 ± 0.3	20.95 ± 0.85
343.15 K	–	1070.3 ± 0.3	17.88 ± 0.72

CC(=O)[O-].CCn1cc[n+](C)c1 [1-ethyl-3-methylimidazolium acetate]
[2]
Conditions	refractive index
283.15 K	1.50423 ± 0.00036
288.15 K	1.50283 ± 0.00036
293.15 K	1.50144 ± 0.00036
298.15 K	1.50001 ± 0.00036
303.15 K	1.49861 ± 0.00036
308.15 K	1.49718 ± 0.00036
313.15 K	1.49577 ± 0.00036
318.15 K	1.49436 ± 0.00036
323.15 K	1.49295 ± 0.00036
328.15 K	1.49154 ± 0.00036
333.15 K	1.49015 ± 0.00036
338.15 K	1.48876 ± 0.00036
343.15 K	1.48734 ± 0.00036

[1], 101.33 kPa
Conditions	electrical conductivity [S/m]	mass density [kg/m3]	speed of sound [m/s]	viscosity [mPa·s]
283.15 K	0.114 ± 0.002	1107.56 ± 0.47	1778 ± 3	388.6 ± 20
288.15 K	0.162 ± 0.003	1104.47 ± 0.47	1764 ± 3	258.4 ± 12
293.15 K	0.222 ± 0.004	1101.36 ± 0.47	1750 ± 3	179.1 ± 8.1
298.15 K	0.296 ± 0.006	1098.26 ± 0.47	1737 ± 3	128.5 ± 5.5
303.15 K	0.382 ± 0.008	1095.16 ± 0.47	1725 ± 3	95.23 ± 4
308.15 K	0.48 ± 0.01	1092.07 ± 0.46	1712 ± 3	72.42 ± 2.9
313.15 K	0.594 ± 0.012	1089 ± 0.46	1700 ± 3	56.38 ± 2.3
318.15 K	0.827 ± 0.017	1085.94 ± 0.46	1687 ± 3	44.79 ± 1.8
323.15 K	0.986 ± 0.02	1082.9 ± 0.46	1675 ± 3	36.23 ± 1.5
328.15 K	–	1079.87 ± 0.46	1664 ± 3	29.78 ± 1.2
333.15 K	–	1076.84 ± 0.46	1652 ± 3	24.82 ± 1
338.15 K	–	1073.83 ± 0.46	1640 ± 3	20.95 ± 0.85
343.15 K	–	1070.83 ± 0.46	1628 ± 3	17.88 ± 0.72
